Data on 19 molecules can be found in patent US7867992B2, “Substituted quinolones” (AiCuris GmbH & Co. KG, priority 2004, dated 2011).

The structures appear in SMILES notation. Where a name gives a salt, the structure may show the parent alone. Read-outs that look alike come from different tables or passages of the source.

Data set [1] can be described thus: Cytostatic effect on NHDF cells in the anti-HCMV cytopathogenicity test. Format: cell-based. The note with it: NHDF cells (human prepuce fibroblasts), 6 days incubation, visual assessment, concentration at which no visible cytostatic effects are evident vs untreated cell control. As to the method: (§1) Anti-HCMV (Anti-human Cytomegalovirus) Cytopathogenicity Tests
(§2) The test compounds are employed as 50 millimolar (mM) solutions in dimethyl sulfoxide (DMSO). Ganciclovir®, Foscamet® and Cidofovir® are used as reference compounds. After the addition of 2 μl of the 50, 5, 0.5 and 0.05 mM DMSO stock solutions respectively to 98 μl portions of cell culture medium in row 2 A-H for duplicate determinations, 1:2 dilutions are carried out with 50 μl portions of medium up to row 11 of the 96-well plate. The wells in rows 1 and 12 each contain 50 μl of medium. 150 μl of a suspension of 1×10^4 cells (human prepuce fibroblasts [NHDF]) are then pipetted into each of the wells (row 1=cell control) and, in rows 2-12, a mixture of HCMV-infected and uninfected NHDF cells (M.O.I.=0.001-0.002), i.e. 1-2 infected cells per 1000 uninfected cells. Row 12 (without substance) serves as virus control. The final test concentrations are 250-0.0005 μM. The plates are incubated at 37° C./5% CO2 for 6 days, i.e. until all the cells in the virus controls are infected (100% cytopathogenic effect [CPE]). The wells are then fixed and stained by adding a mixture of formalin and Giemsa's dye (30 minutes), washed with double-distilled water and dried in a drying oven at 50° C. The plates are then assessed visually using an overhead microscope (plaque multiplier from Technomara).
(§3) The following data can be obtained from the test plates: • CC50 (NHDF)=substance concentration in μM at which no visible cytostatic effects on the cells are evident by comparison with the untreated cell control; • EC50 (HCMV)=substance concentration in μM which inhibits the CPE (cytopathic effect) by 50% compared with the untreated virus control; • SI (selectivity index)=CC50 (NHDF)/EC50 (HCMV).
Background: Protection from cytopathic effect is a common read-out in antiviral testing.

The subject of the next data set is HCMV. Briefly: Anti-HCMV cytopathogenicity test (CPE inhibition). Format: cell-based, human cytomegalovirus. Conditions: for EC50: read-out: HCMV EC50; for SI HCMV (selectivity index): SI = CC50 (NHDF)/EC50 (HCMV). On the procedure:
as §1, §2, §3

[2] abbreviates: Human betaherpesvirus 5, 144 h, HCMV-infected NHDF cells, M.O.I. 0.001-0.002, 6 days, 50% inhibition of CPE vs untreated virus control.

Consider `COc1c(N2C[C@@H](C)N[C@@H](C)C2)c(F)cc2c(=O)c(C(=O)NCc3ccc(Cl)cc3Cl)cn(CCF)c12` [Example 28, N-(2,4-Dichlorobenzyl)-7-[(3RS,5RS-3,5-dimethyl)piperazin-1-yl]-6-fluoro-1-(2-fluoroethyl)-8-methoxy-4-oxo-1,4-dihydroquinoline-3-carboxamide hydroformate], for which the CC50 at 6 days in data set [1] was found to be 6100 nM. Moreover, in the data set with HCMV (setting [2]), the EC50 stood at 100 nM. Further, the “SI HCMV (selectivity index)” value with HCMV came to 63.
In turn, `COc1c(N2C[C@@H](C)N[C@@H](C)C2)c(F)cc2c(=O)c(C(=O)NCc3ccc(Cl)cc3Cl)cn([C@@H]3C[C@@H]3F)c12` (mixture of isomers) [Example 16, N-(2,4-Dichlorobenzyl)-7-[(3RS,5SR)-3,5-dimethylpiperazin-1-yl]-6-fluoro-1-[(1R,2S)-2-fluorocyclopropyl]-8-methoxy-4-oxo-1,4-dihydroquinoline-3-carboxamide] gave a CC50 at 6 days in data set [1] of 7800 nM. The EC50 in the data set with HCMV (setting [2]) worked out at 100 nM. The “SI HCMV (selectivity index)” value in the data set with HCMV turned out to be 78.
The matching figures for `COc1c(N2C[C@@H](C)N[C@@H](C)C2)c(F)cc2c(=O)c(C(=O)NCc3ccc(Cl)cc3Cl)cn([C@H]3C[C@H]3F)c12` [Example 34]: 8400 nM, 19 nM and 442.
Turning to `C[C@@H]1CN(c2c(F)cc3c(=O)c(C(=O)NCc4ccc(Cl)cc4Cl)cn(C4CC4)c3c2Cl)C[C@H](C)N1` [Example 5, 8-Chloro-1-cyclopropyl-N-(2,4-dichlorobenzyl)-7-[(3RS,5SR)-3,5-dimethylpipierazin-1-yl]-6-fluoro-4-oxo-1,4-dihydroquinoline-3-carboxamide], the CC50 at 6 days in data set [1] amounted to 6000 nM. Also, the EC50 in the data set on HCMV (setting [2]) turned out to be 230 nM. Also, in the data set on HCMV, the “SI HCMV (selectivity index)” value is 26.
In data set [1], `COc1c(N2C[C@@H](C)N[C@@H](C)C2)c(F)cc2c(=O)c(C(=O)NCc3ccc(OC(F)(F)F)cc3Cl)cn(CC(F)(F)F)c12` [Example 51] yielded a CC50 at 6 days of 5300 nM. Further, in the data set on HCMV (setting [2]), the concentration for a half-maximal effect (EC50) stood at 11 nM. Besides, the “SI HCMV (selectivity index)” value in the data set with HCMV was determined as 482.
`COc1c(N2C[C@@H](C)N(CC(=O)N(C)C)[C@@H](C)C2)c(F)cc2c(=O)c(C(=O)NCc3ccc(Cl)cc3Cl)cn(CC(F)(F)F)c12` [Example 54] came in with a CC50 at 6 days in data set [1] of 21000 nM. Also, the EC50 in the data set on HCMV (setting [2]) was 8.5 nM. For the same molecule, the “SI HCMV (selectivity index)” value in the data set on HCMV turned out to be 2471.
In turn, `COc1c(N2C[C@@H](C)N[C@@H](C)C2)c(F)cc2c(=O)c(C(=O)NCc3ccc(Cl)cc3Cl)cn(C3CCC3)c12` [Example 40] gave a CC50 at 6 days in data set [1] of 11000 nM. Further, in the data set on HCMV (setting [2]), the EC50 came out at 110 nM. Moreover, the “SI HCMV (selectivity index)” value with HCMV was 100.
For the molecule `O=C(NCc1ccc(Cl)cc1Cl)c1cn(C2CC2)c2c(Cl)c(N3CCCN(CCO)CC3)c(F)cc2c1=O` [Example 1, 8-Chloro-1-cyclopropyl-N-(2,4-dichlorobenzyl)-6-fluoro-7-[4-(2-hydroxyethyl)-1,4-diazepan-1-yl]-4-oxo-1,4-dihydroquinoline-3-carboxamide], the CC50 at 6 days in data set [1] was found to be 2500 nM. In addition, the EC50 in the data set on HCMV (setting [2]) is 200 nM. Also, in the data set with HCMV, the “SI HCMV (selectivity index)” value amounted to 12.5.
For `COc1c(N2CCN(CCC(N)=O)C(C)C2)c(F)cc2c(=O)c(C(=O)NCc3ccc(Cl)cc3Cl)cn(C3CC3)c12` (stereo not drawn) [Example 74], in that order: 2600 nM, 92 nM and 28.
In data set [1], `COc1c(N2C[C@@H](C)N[C@@H](C)C2)c(F)cc2c(=O)c(C(=O)NCc3ccc(Cl)cc3Cl)cn(CC(F)F)c12` [Example 35] showed a CC50 at 6 days of 4800 nM. In the data set on HCMV (setting [2]), the EC50 was determined as 36.5 nM. Further, the “SI HCMV (selectivity index)” value in the data set with HCMV is recorded as 138.
`COc1c(N2C[C@@H](C)N(CC(=O)NS(C)(=O)=O)[C@@H](C)C2)c(F)cc2c(=O)c(C(=O)NCc3ccc(OC(F)(F)F)cc3C)cn(CC(F)(F)F)c12` [Example 68] registered a CC50 at 6 days in data set [1] of 24000 nM. The EC50 in the data set on HCMV (setting [2]) worked out at 2 nM. In the data set with HCMV, the “SI HCMV (selectivity index)” value was determined as 12000.
For `Cc1cc(Cl)ccc1CNC(=O)c1cn(C2CC2)c2c(Cl)c(N3CCN(CCOCCO)CC3)c(F)cc2c1=O` [Example 8, 8-Chloro-N-(4-chloro-2-methylbenzyl)-1-cyclopropyl-6-fluoro-7-{4-[2-(2-hydroxyethoxy)ethyl]piperazin-1-yl}-4-oxo-1,4-dihydroquinoline-3-carboxamide], the CC50 at 6 days in data set [1] amounted to 7700 nM. The EC50 in the data set on HCMV (setting [2]) is 190 nM. Further, in the data set with HCMV, the “SI HCMV (selectivity index)” value is on record as 41.
`COc1c(N2C[C@@H](C)N(CC(N)=O)[C@@H](C)C2)c(F)cc2c(=O)c(C(=O)NCc3ccc(Cl)cc3Cl)cn(CC(F)(F)F)c12` [Example 53, {(2RS,6SR)-4-[3-{[(2,4-Dichlorobenzyl)amino]carbonyl}-6-fluoro-8-methoxy-4-oxo-1-(2,2,2-trifluoroethyl)-1,4-dihydroquinolin-7-yl]-2,6-dimethylpiperazin-1-yl}acetamide] displayed a CC50 at 6 days in data set [1] of 4300 nM. Moreover, the EC50 with HCMV (setting [2]) was 10 nM. Besides, the “SI HCMV (selectivity index)” value in the data set on HCMV stood at 430.
For `COc1ccc(CNC(=O)c2cn(C3CC3)c3c(OC)c(N4C[C@@H](C)N[C@@H](C)C4)c(F)cc3c2=O)c(Cl)c1` [Example 22], the CC50 at 6 days in data set [1] stood at 8400 nM. For the same molecule, in the data set on HCMV (setting [2]), the EC50 was 380 nM. Moreover, in the data set with HCMV, the “SI HCMV (selectivity index)” value was found to be 22.
For `COc1c(N2C[C@@H](C)N[C@@H](C)C2)c(F)cc2c(=O)c(C(=O)NCc3ccc(C(F)(F)F)cc3C)cn(C3CC3)c12` [Example 24], in that order: 4700 nM, 250 nM and 19.
For `COc1c(N2C[C@@H](C)N[C@@H](C)C2)c(F)cc2c(=O)c(C(=O)NCc3ccc(OC(F)(F)F)cc3C)cn(CC(F)(F)F)c12` [Example 52, 7-[(3RS,5SR)-3,5-Dimethylpiperazin-1-yl]-6-fluoro-8-methoxy-N-[2-methyl-4-(trifluoromethoxy)benzyl]-4-oxo-1-(2,2,2-trifluoroethyl)-1,4-dihydroquinoline-3-carboxamide], the CC50 at 6 days in data set [1] came out at 7700 nM. In the data set on HCMV (setting [2]), the EC50 amounted to 19 nM. The “SI HCMV (selectivity index)” value in the data set with HCMV amounted to 405.
In the case of `COc1c(N2C[C@@H](C)N[C@@H](C)C2)c(F)cc2c(=O)c(C(=O)NCc3ccc(Cl)cc3Cl)cn([C@@H](C)C(F)(F)F)c12` [Example 45], in data set [1], the CC50 at 6 days turned out to be 2400 nM. Moreover, in the data set with HCMV (setting [2]), the EC50 was found to be 77 nM. For the same molecule, the “SI HCMV (selectivity index)” value in the data set on HCMV is 31.
In turn, `COc1c(N2C[C@@H](C)N(C[C@@H](O)CO)[C@@H](C)C2)c(F)cc2c(=O)c(C(=O)NCc3ccc(Cl)cc3Cl)cn(C3CC3)c12` [Example 92] yielded a CC50 at 6 days in data set [1] of 5300 nM. For the same molecule, the EC50 in the data set with HCMV (setting [2]) was 31 nM. Moreover, in the data set on HCMV, the “SI HCMV (selectivity index)” value is 171.
Take `COc1c(N2C[C@@H](C)N(C(=O)CN)[C@@H](C)C2)c(F)cc2c(=O)c(C(=O)NCc3ccc(Cl)cc3Cl)cn(C3CC3)c12` [Example 79, 1-Cyclopropyl-N-(2,4-dichlorobenzyl)-6-fluoro-7-[(3RS,5SR)-4-glycyl-3,5-dimethylpiperazin-1-yl]-8-methoxy-4-oxo-1,4-dihydroquinoline-3-carboxamide hydrochloride]: the CC50 at 6 days in data set [1] was determined as 7700 nM. Further, the EC50 with HCMV (Human betaherpesvirus 5, NHDF, 144 h) was 53 nM. The “SI HCMV (selectivity index)” value with HCMV is given as 145.

In general, CC50 refers to the concentration at which the toxic effect on the cells reaches its halfway point. As a reminder, the EC50 is the concentration needed to bring the measured effect to its halfway point.
